The record followed here is US7008786B2, “Microorganism producing L-lysine and processes for producing L-lysine using the same” (priority 2000, dated 2006).

Structures are written as SMILES.

For assay [1], the system named is Corynebacterium glutamicum CH77. Description: Resistance to monensin: growth on minimal agar plate medium containing monensin. It is filed as cell-based. The following applies: Monensin 7,000 μg/l, 4 days, parent strain CH77. The method, then: (§1) The parent CH77 strain and the mutant CJM107 strain were tested for their resistance to monensin by the following method. Cells were grown in a Luria-Bertani (LB) liquid medium for 16 hours. Then, the cells were washed twice with a sterilized physiological saline and then, appropriately diluted and cultivated on a minimal agar plate medium [glucose 10 g, (NH4)2SO4 2 g, urea 2 g, KH2PO4 1 g, K2HPO4 3 g, MgSO4.7H2O 0.5 g, FeSO4.7H2O 10 mg, MnSO4.7H2O 10 mg, biotin 100 μg, Thiamin.HCl 100 μg, CaCl2.2H2O 100 μg, Na2B4O7.10H2O 80 μg, (NH4)6MoO27.4H2O 40 μg, ZnSO4.7H2O 10 μg, CuSO4.7H2O 10 μg, MnCl2.4H2O 10 μg, FeCl3.6H2O 1 mg, agar 20 g, if necessary L-leucine 0.1 g, if necessary L-threonine 0.1 g, if necessary L-methionine 0.1 g, per distilled water of 11 (pH 7.0)] containing monensin of 7,000 μg/1 for 4 days.

In assay [2] the test system is Corynebacterium glutamicum CJM107. Described as above. It is filed as cell-based. The following applies: Monensin 7,000 μg/l, 4 days, mutant strain CJM107. On the procedure:
as §1

As for `CC[C@@]1([C@@H]2O[C@@H]([C@H]3O[C@@](O)(CO)[C@H](C)C[C@@H]3C)C[C@@H]2C)CC[C@H]([C@]2(C)CC[C@]3(C[C@H](O)[C@@H](C)[C@@H]([C@@H](C)[C@@H](OC)[C@H](C)C(=O)O)O3)O2)O1` [Monensin, monensin], the “Growth of CH77 in the presence of monensin” value in assay [1] is “−”. Moreover, the “Growth of CJM107 in the presence of monensin” value in assay [2] is “+++”.
